Source: DBAASP
Converted amounts (≈) assume the structure as drawn. Blank lines part the entries; values can stand above or below the molecule they belong to.

Key:
Test in all cases: ≥ marks a high value that may be exact or a test limit, other limits are often not marked, values filed in µg/mL are converted to µM
[1] = system: Pseudomonas aeruginosa 4677
[2] = system: Escherichia coli ATCC 25922
[3] = system: Enterobacter cloacae 6780
[4] = system: Klebsiella pneumoniae 913
[5] = system: Escherichia coli 4530
[6] = system: Enterobacter cloacae 2524
[7] = system: Klebsiella pneumoniae 1625
[8] = system: Acinetobacter baumannii
[9] = system: Escherichia coli 170
[10] = system: Enterococcus faecalis WHO 14
[11] = system: Acinetobacter calcoaceticus ATCC 2305-5
[12] = system: Pseudomonas aeruginosa ATCC 27853
[13] = system: Bacillus subtilis ICTA-07
[14] = system: Micrococcus luteus ATCC 4698
[15] = system: Yersinia enterocolitica ATCC 9610
[16] = system: Staphylococcus aureus ATCC 25929
[17] = system: Salmonella enterica subsp. enterica serovar Typhimurium ATCC 14028
[18] = system: Serratia marcescens ATCC 8100
[19] = system: Staphylococcus aureus ATCC 25923
[20] = system: Escherichia coli ML-35
[21] = system: Proteus mirabilis ATCC 25933
[22] = system: Saccharomyces cerevisiae
[23] = system: Candida albicans
[24] = system: Klebsiella pneumoniae ATCC 10031
[25] = system: Shigella dysenteriae ATCC 9752
[26] = system: Staphylococcus epidermidis ATCC 12228
[27] = system: Pseudomonas putida
[28] = system: Escherichia coli
[29] = system: Bacillus subtilis KCTC 1021
[30] = system: Pseudomonas aeruginosa ATCC 9027
[31] = system: Serratia marcescens

MIC [1]: ≥ 50 µM | MIC [2]: > 50 µM | MIC [3]: ≥ 50 µM | MIC [4]: 25 µM (≈ 56 µg/mL) | MIC [5]: ≥ 50 µM | MIC [6]: 6.25 µM (≈ 14 µg/mL) | MIC [7]: ≥ 50 µM | MIC [8]: 8.84 µM (≈ 19.8 µg/mL) | MIC [9]: 12.5 µM (≈ 28 µg/mL)
Compound: CC[C@H](C)[C@H](N)C(=O)N[C@@H](C)C(=O)N[C@@H](CO)C(=O)N[C@@H](CCCCN)C(=O)N[C@H](C(=O)N[C@@H](C)C(=O)N[C@@H](CC(N)=O)C(=O)N[C@H](C(=O)N[C@H](C(=O)N[C@@H](CCC(N)=O)C(=O)N[C@@H](CCCCN)C(=O)N[C@@H](CC(C)C)C(=O)N[C@@H](CCCCN)C(=O)N[C@@H](CCCN=C(N)N)C(=O)N[C@@H](CCCCN)C(=O)N[C@@H](C)C(=O)N[C@@H](CCCCN)C(=O)N[C@@H](CC(N)=O)C(=O)N[C@@H](C)C(=O)N[C@H](C(=O)N[C@@H](C)C(=O)O)C(C)C)C(C)C)[C@@H](C)O)C(C)C [IASKVANTVQKLKRKAKNAVA]

MIC [10]: ≥ 34 µM | MIC [11]: ≥ 43 µM | MIC [12]: 77 µM (≈ 533 µg/mL) | MIC [13]: 22 µM (≈ 152 µg/mL) | MIC [14]: ≥ 43 µM | MIC [15]: ≥ 49 µM
Compound: CC[C@H](C)[C@@H]1NC(=O)[C@H](CCCCN)NC(=O)[C@H](C(C)C)NC(=O)[C@H](CC(N)=O)NC(=O)[C@H](CC(=O)O)NC(=O)[C@@H]2CCCN2C(=O)[C@H](CC(C)C)NC(=O)CNC(=O)[C@H](Cc2ccc(O)cc2)NC(=O)[C@@H]2CSSC[C@@H]3NC(=O)[C@H](CCC(=O)O)NC(=O)[C@H]([C@@H](C)O)NC(=O)[C@H](CC(N)=O)NC(=O)[C@@H]4CSSC[C@H](NC(=O)[C@H](C)NC(=O)[C@@H]5CCCN5C(=O)[C@H](Cc5c[nH]c6ccccc56)NC(=O)[C@H](C)NC(=O)[C@H](CSSC[C@H](NC(=O)[C@H](CO)NC(=O)[C@H](Cc5ccc(O)cc5)NC(=O)[C@H](CCCCN)NC(=O)[C@@H](NC(=O)CNC(=O)[C@H](CCCN=C(N)N)NC(=O)[C@H](Cc5cnc[nH]5)NC(=O)[C@H](CCC(=O)O)NC(=O)[C@@H](NC(=O)[C@@H](NC(=O)[C@H](Cc5ccc(O)cc5)NC(=O)CNC(=O)[C@H](CC(=O)O)NC(=O)[C@@H](N)CCCCN)[C@@H](C)CC)[C@@H](C)CC)CSSC[C@@H](C(N)=O)NC(=O)[C@H](CCCCN)NC(=O)[C@H](CC(C)C)NC(=O)[C@H](CC(N)=O)NC(=O)[C@H](CC(N)=O)NC(=O)[C@H](CO)NC(=O)[C@H](CC(=O)O)NC(=O)[C@H](Cc5ccccc5)NC1=O)C(=O)N[C@@H](Cc1ccccc1)C(=O)N[C@@H](Cc1ccccc1)C(=O)NCC(=O)N[C@@H]([C@@H](C)O)C(=O)N[C@@H](CC(N)=O)C(=O)N[C@@H](CO)C(=O)N[C@@H](Cc1c[nH]c5ccccc15)C(=O)N4)NC(=O)[C@H](Cc1ccc(O)cc1)NC(=O)CNC(=O)[C@H](CO)NC(=O)[C@H](CO)NC(=O)CNC(=O)[C@H](CCCCN)NC(=O)[C@H](CCCCN)NC(=O)[C@H](CC(C)C)NC(=O)[C@H]([C@@H](C)O)NC3=O)C(=O)N[C@@H](Cc1c[nH]c3ccccc13)C(=O)N2 [KDGYIIEHRGCKYSCFFGTNSWCNTECTLKKGSSGYCAWPACWCYGLPDNVKIFDSNNLKC]

MIC [2]: 33 µM (≈ 63.9 µg/mL) | MIC [16]: ≥ 66 µM
Compound: CC(C)C[C@H](NC(=O)[C@H](CO)NC(=O)[C@@H]1CCCN1C(=O)[C@H](CO)NC(=O)[C@H](CC(C)C)NC(=O)[C@@H](N)CCCCN)C(=O)NCC(=O)N1CCC[C@H]1C(=O)N[C@H](C(=O)N[C@@H](CO)C(=O)N[C@@H](CCCCN)C(=O)NCC(=O)N[C@@H](CCCCN)C(=O)N[C@@H](CC(C)C)C(=O)N[C@@H](CC(C)C)C(=O)N[C@@H](C)C(=O)NCC(=O)N[C@@H](CCC(N)=O)C(=O)N[C@@H](CCCN=C(N)N)C(N)=O)C(C)C [KLSPSLGPVSKGKLLAGQR]

MIC [2]: 64 µM (≈ 147 µg/mL) | MIC [17]: 128 µM (≈ 294 µg/mL) | MIC [18]: ≥ 128 µM | MIC [19]: > 128 µM | MIC [20]: ≥ 64 µM
Compound: CC(C)C[C@H](NC(=O)[C@H](CCCN=C(N)N)NC(=O)[C@@H]1CCCN1C(=O)[C@@H]1CCCN1C(=O)[C@H](CCCN=C(N)N)NC(=O)[C@@H]1CCCN1)C(=O)N1CCC[C@H]1C(=O)N[C@@H](CCCN=C(N)N)C(=O)N1CCC[C@H]1C(=O)N[C@@H](CCCN=C(N)N)C(=O)N1CCC[C@H]1C(=O)N[C@@H](CCCN=C(N)N)C(=O)N1CCC[C@H]1C(=O)N[C@@H](CC(C)C)C(=O)N1CCC[C@H]1C(=O)N[C@@H](Cc1ccccc1)C(=O)N1CCC[C@H]1C(=O)N[C@@H](CCCN=C(N)N)C(=O)N1CCC[C@H]1C(=O)O [PRPPRLPRPRPRPLPFPRP]

MIC [21]: ≥ 57.8 µM | MIC [22]: ≥ 57.8 µM | MIC [23]: > 57.8 µM | MIC [24]: 28.9 µM (≈ 99.9 µg/mL) | MIC [17]: > 57.8 µM | MIC [25]: 7.22 µM (≈ 25 µg/mL) | MIC [26]: 14.4 µM (≈ 50 µg/mL) | MIC [27]: 14.4 µM (≈ 50 µg/mL) | MIC [28]: 7.22 µM (≈ 25 µg/mL) | MIC [29]: 14.4 µM (≈ 50 µg/mL) | MIC [30]: 14.4 µM (≈ 50 µg/mL) | MIC [14]: 1.44 µM (≈ 5 µg/mL) | MIC [31]: ≥ 57.8 µM
Compound: CC[C@H](C)[C@H](NC(=O)[C@H](CC(C)C)NC(=O)[C@H](CO)NC(=O)[C@H](Cc1ccccc1)NC(=O)[C@H](CC(C)C)NC(=O)[C@@H](N)CO)C(=O)N[C@@H](CCCCN)C(=O)N[C@@H](C)C(=O)NCC(=O)N[C@@H](C)C(=O)N[C@@H](CCCCN)C(=O)N[C@@H](Cc1ccccc1)C(=O)N[C@@H](CC(C)C)C(=O)NCC(=O)N[C@@H](CCCCN)C(=O)N[C@@H](CC(N)=O)C(=O)N[C@@H](CC(C)C)C(=O)N[C@@H](CC(C)C)C(=O)N[C@@H](CCCCN)C(=O)N[C@@H](CCC(N)=O)C(=O)NCC(=O)N[C@@H](C)C(=O)N[C@@H](CS)C(=O)N[C@@H](Cc1ccc(O)cc1)C(=O)N[C@@H](C)C(=O)N[C@@H](C)C(=O)N[C@H]1CSSC[C@@H](C(=O)O)NC(=O)[C@H](CCC(N)=O)NC(=O)[C@H](CCCCN)NC(=O)[C@H](CO)NC(=O)[C@H](C)NC(=O)[C@H](CCCCN)NC1=O [SLFSLIKAGAKFLGKNLLKQGACYAACKASKQC]
